Patent US7504519B2, “Derivatives of pyrazoline, procedure for obtaining them and use thereof as therapeutic agents” (Laboratorios Del Dr. Esteve, S.A., priority 2004, dated 2009)
Structures can show the parent of a compound that is named as a salt.

How the values were obtained:
rats = test: Analgesia test on rats (carrageenan subplantar injection, thermal stimulus, Hargreaves method); format: in vivo; settings: analgesic activity, rat, 2.5 mg/kg i.v., compound given 3 h after carrageenan; for % activity At 30 min.: 30 min after administration; for % activity At 120 min.: 120 min after administration
Method: Biological Activity Analgesia Test on Rats
The analgesic activity of the compounds of the invention is tested as described in the publication by K. Hargreaves et al., Pain, 32. 77-88. (1988).
Briefly, the rats are transferred to the experimentation laboratory, where they remain in groups of five in Makrolon cages with barred floors to prevent coprophagy. At the start of the experiment, water and food were removed and animals weighed and labelled appropriately.
Each rat receives by subplantar injection 0.1 ml of sterile saline solution in the rear left leg, followed by 0.1 ml 2% (weight/volume) carrageenan suspension in sterile saline solution in the rear right leg.
Three hours following the subplantar injections of carrageenan and vehicle, each rat was intravenously administered with compounds to be tested, dissolved in sterile saline serum, at a dose of 1 ml per kg of body weight. Then after administration of compounds, analgesic activity values were readed. For this purpose, rats were transferred to the methacrylate chambers of an analgesimeter with a glass floor. Once the period of acclimatisation in the chambers had elapsed (i.e., after 5 minutes), an infrared radiation lamp capable of producing thermal stimulation was placed under the rats' legs. Readings of analgesic activity were taken at 15, 30, 60 and 120 minutes following administration of the products or their vehicle.
The thermal stimulus, calibrated beforehand to 10 amperes, is applied to each of the rear legs at intervals of at least 1 minute. The response of the rats to the pain consists in raising the leg, thus avoiding contact with the floor.

| Compound | % activity At 30 min. (rats) | % activity At 120 min. (rats) | melting point |
| --- | --- | --- | --- |
| N-(4-Trifluoromethyl)benzoil-4-(4,5-dihydro-1-phenyl-3-trifluoromethyl-1H-pyrazole-5-yl)benzenesulphonamide [Compound 39] | 92% | 57% |  |
| CCC(=O)NS(=O)(=O)c1ccc(C2CC(C(F)(F)F)=NN2c2ccccc2)cc1 (stereo not shown) [Compound 32, N-Propionyl-4-(4,5-dihydro-1-phenyl-3-trifluoromethyl-1H-pyrazole-5-yl)benzenesulphonamide] | 72% | 51% |  |
| O=C(NS(=O)(=O)c1ccc(N2N=C(C(F)(F)F)CC2c2ccccc2)cc1)c1ccc(C(F)(F)F)cc1 (stereo not shown) [Compound 22, N-(4-Trifluoromethylbenzoyl)-4-(4,5-dihydro-5-phenyl-3-trifluoromethyl-pyrazole-1-yl)-benzenesulphonamide] | 72% | 76% |  |
| CCCCOC(=O)NS(=O)(=O)c1ccc(C2CC(C(F)(F)F)=NN2c2ccccc2)cc1 (stereo not shown) [Compound 37, N-Butoxycarbonyl-4-(4,5-dihydro-1-phenyl-3-trifluoromethyl-1H-pyrazole-5-yl)benzenesulphonamide] | 68% | 75% |  |
| COC(=O)NS(=O)(=O)c1ccc(C2CC(C(F)(F)F)=NN2c2ccccc2)cc1 (stereo not shown) [Compound 31, N-Methoxycarbonyl-4-(4,5-dihydro-1-phenyl-3-trifluoromethyl-1H-pyrazole-5-yl)benzenesulphonamide] | 76% | 49% |  |
| CCCCOC(=O)NS(=O)(=O)c1ccc(C2CC(C(F)(F)F)=NN2c2ccccc2)cc1 (stereo not shown) (as salt: sodium) [Compound 37, N-Butoxycarbonyl-4-(4,5-dihydro-1-phenyl-3-trifluoromethyl-1H-pyrazole-5-yl)benzenesulphonamide] |  |  | 223 to 230 °C |
| N-Ethyloxicarbonyl-4-(4,5-dihydro-5-phenyl-3-trifluoromethyl-pyrazole-1-yl)-benzenesulphonamide [Compound 4] | 78% | 48% |  |
| O=C(CO)NS(=O)(=O)c1ccc(N2N=C(C(F)(F)F)CC2c2ccccc2)cc1 (stereo not shown) [Compound 3, N-(2-Hydroxyacetyl)-4-(4,5-dihydro-5-phenyl-3-trifluoromethyl-pyrazole-1-yl)-benzenesulphonamide] | 41% | 40% |  |
| COC(=O)c1ccc(NS(=O)(=O)c2ccc(N3N=C(C(F)(F)F)CC3c3ccccc3)cc2)cc1 (stereo not shown) [Compound 25, 4-[4-(4,5-dihydro-5-phenyl-3-trifluoromethyl-pyrazole-1-yl)-benzenesulphonylamine] benzoic acid methylic ester] | 67% | 66% |  |
| O=C(NS(=O)(=O)c1ccc(N2N=C(C(F)(F)F)CC2c2ccccc2)cc1)c1ccc(C(F)(F)F)cc1 (stereo not shown) (as salt: sodium) [Compound 22, N-(4-Trifluoromethylbenzoyl)-4-(4,5-dihydro-5-phenyl-3-trifluoromethyl-pyrazole-1-yl)-benzenesulphonamide] |  |  | > 280 °C |
| CCC(=O)NS(=O)(=O)c1ccc(C2CC(C(F)(F)F)=NN2c2ccccc2)cc1 (stereo not shown) (as salt: sodium) [Compound 32, N-Propionyl-4-(4,5-dihydro-1-phenyl-3-trifluoromethyl-1H-pyrazole-5-yl)benzenesulphonamide] |  |  | > 280 °C |
